Data set [1] concerns the target T1, Cathepsin S (Homo sapiens, UniProt P25774). Description: Inhibition of human cathepsin S by ADAM-28 substrate-based fluorescence assay.
Data set [2] concerns the target T1, Cathepsin S. Description: Inhibition of cathepsin S in human JY cells assessed as accumulation of invariant chain p10 fragment after 24 hrs by Western blot analysis. The class given is cell-based. (Immunoblotting shows a protein as a band on a membrane.)
Data set [3] addresses Voltage-gated inwardly rectifying potassium channel KCNH2 (Homo sapiens, UniProt Q12809). As to the kind of experiment: Inhibition of human ERG by astemizole binding assay.

Results on 24 compounds are retold here after ChEMBL document CHEMBL1156272, “Discovery and SAR of novel pyrazole-based thioethers as cathepsin S inhibitors. Part 2: Modification of P3, P4, and P5 regions” (Bioorg Med Chem Lett, 2010).

One may read the IC50 as the midpoint of a concentration-inhibition curve.

T1 sequence (P25774 whole entry, the tested form may be a part): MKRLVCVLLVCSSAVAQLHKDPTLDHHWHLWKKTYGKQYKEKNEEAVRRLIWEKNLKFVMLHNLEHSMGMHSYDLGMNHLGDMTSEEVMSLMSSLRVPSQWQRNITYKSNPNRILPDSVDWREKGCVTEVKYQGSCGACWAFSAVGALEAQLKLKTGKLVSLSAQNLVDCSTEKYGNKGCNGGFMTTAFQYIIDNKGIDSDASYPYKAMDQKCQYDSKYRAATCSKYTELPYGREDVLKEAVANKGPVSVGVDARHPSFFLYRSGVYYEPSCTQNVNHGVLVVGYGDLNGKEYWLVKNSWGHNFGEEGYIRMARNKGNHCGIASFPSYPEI
Chain of Voltage-gated inwardly rectifying potassium channel KCNH2 (Q12809 whole entry): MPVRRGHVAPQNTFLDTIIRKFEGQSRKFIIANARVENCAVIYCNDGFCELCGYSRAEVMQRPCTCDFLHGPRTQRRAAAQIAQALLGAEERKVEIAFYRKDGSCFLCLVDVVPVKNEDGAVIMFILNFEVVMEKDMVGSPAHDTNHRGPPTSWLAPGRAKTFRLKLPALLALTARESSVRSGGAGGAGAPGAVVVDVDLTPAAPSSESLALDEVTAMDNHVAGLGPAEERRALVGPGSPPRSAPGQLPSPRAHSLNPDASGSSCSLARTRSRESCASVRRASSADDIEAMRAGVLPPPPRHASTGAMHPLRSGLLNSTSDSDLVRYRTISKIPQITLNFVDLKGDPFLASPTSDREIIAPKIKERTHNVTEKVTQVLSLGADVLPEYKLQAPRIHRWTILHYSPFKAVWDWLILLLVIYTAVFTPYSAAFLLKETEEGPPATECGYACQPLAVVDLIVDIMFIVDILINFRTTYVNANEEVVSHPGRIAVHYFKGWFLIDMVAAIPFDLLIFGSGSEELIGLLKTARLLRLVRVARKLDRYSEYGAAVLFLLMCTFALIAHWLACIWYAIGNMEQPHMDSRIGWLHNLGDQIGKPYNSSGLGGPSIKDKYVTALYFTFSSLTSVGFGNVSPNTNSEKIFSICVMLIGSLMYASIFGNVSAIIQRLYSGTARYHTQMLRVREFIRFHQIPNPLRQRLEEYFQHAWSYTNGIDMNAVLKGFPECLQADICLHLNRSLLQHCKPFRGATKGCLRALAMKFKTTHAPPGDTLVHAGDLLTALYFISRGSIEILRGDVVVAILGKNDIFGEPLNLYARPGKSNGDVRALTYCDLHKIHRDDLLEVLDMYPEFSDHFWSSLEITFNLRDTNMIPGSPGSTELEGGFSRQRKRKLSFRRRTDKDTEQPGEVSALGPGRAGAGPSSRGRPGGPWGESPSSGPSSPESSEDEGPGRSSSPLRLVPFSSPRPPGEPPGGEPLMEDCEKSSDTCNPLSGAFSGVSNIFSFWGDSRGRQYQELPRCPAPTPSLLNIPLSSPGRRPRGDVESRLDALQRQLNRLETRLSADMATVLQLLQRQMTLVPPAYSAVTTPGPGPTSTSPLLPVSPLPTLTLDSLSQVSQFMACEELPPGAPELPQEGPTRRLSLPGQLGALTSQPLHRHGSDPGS

Turning to `CS(=O)(=O)N1CCc2c(c(-c3ccc(C(F)(F)F)c(SCCN4CCC(F)CC4)c3)nn2C[C@H](O)CN2CCCCC2)C1`, the IC50 stood at 395 nM against Cathepsin S [1] and 810 nM on Cathepsin S [2].
`CS(=O)(=O)N1CCc2c(c(-c3ccc(C(F)(F)F)c(SCCN4CCC(F)CC4)c3)nn2C[C@@H](O)CN2CCCCC2)C1`: the IC50 against Cathepsin S [1] turned out to be 58 nM; on Cathepsin S [2], 120 nM.
With `NC(=O)N1CCc2c(c(-c3ccc(C(F)(F)F)c(SCCN4CCC(F)CC4)c3)nn2C[C@@H](O)CN2CCCCC2)C1`, the IC50 against Cathepsin S [1] amounted to 235 nM.
For the compound `O=C(c1cccs1)N1CCc2c(c(-c3ccc(C(F)(F)F)c(SCCN4CCC(F)CC4)c3)nn2C[C@@H](O)CN2CCCCC2)C1`, at Cathepsin S [1], the IC50 worked out at 355 nM.
For `O=C(c1nc[nH]n1)N1CCc2c(c(-c3ccc(C(F)(F)F)c(SCCN4CCC(F)CC4)c3)nn2C[C@@H](O)CN2CCCCC2)C1`, the values for the half-maximal inhibitory concentration (IC50) against Cathepsin S [1] and at Cathepsin S [2] were 205 nM and 320 nM, respectively.
In the case of `CC(=O)N1CCc2c(c(-c3ccc(C(F)(F)F)c(SCCN4CCC(F)CC4)c3)nn2C[C@@H](O)CN2CCCCC2)C1`, the concentration for half-maximal inhibition (IC50) against Cathepsin S [1] is 385 nM.
`O=C(CO)N1CCc2c(c(-c3ccc(C(F)(F)F)c(SCCN4CCC(F)CC4)c3)nn2C[C@@H](O)CN2CCCCC2)C1` had a concentration for half-maximal inhibition (IC50) at Cathepsin S [1] of 235 nM.
On the same count and under the same terms, in the case of `CC(O)C(=O)N1CCc2c(c(-c3ccc(C(F)(F)F)c(SCCN4CCC(F)CC4)c3)nn2C[C@@H](O)CN2CCCCC2)C1` (stereo partly specified) it was 245 nM.
`NC(=O)C(=O)N1CCc2c(c(-c3ccc(C(F)(F)F)c(SCCN4CCC(F)CC4)c3)nn2C[C@@H](O)CN2CCCCC2)C1`: the concentration for half-maximal inhibition (IC50) came to 70 nM at Cathepsin S [1] and 190 nM at Cathepsin S [2].
With `OC(CN1CCCCC1)Cn1nc(-c2ccc(C(F)(F)F)c(SCCN3CCC(F)CC3)c2)c2c1CCNC2` (stereo unspecified), the IC50 against Cathepsin S [1] was found to be 9600 nM.
With `CS(=O)(=O)N1CCc2c(c(-c3ccc(C(F)(F)F)c(SCCN4CCCCC4)c3)nn2CC(O)CN2CCC(C(=O)N3CCCC3)CC2)C1` (racemic), the IC50 at Cathepsin S [2] amounted to 96 nM.
On to `CS(=O)(=O)N1CCc2c(c(-c3ccc(C(F)(F)F)c(SCCN4CCCCC4)c3)nn2CC(O)CN2CCCCC2)C1` (racemic), for which the half-maximal inhibitory concentration (IC50) against Cathepsin S [1] was determined as 204 nM; at Cathepsin S [2], 335 nM.
Turning to `CS(=O)(=O)N1CCc2c(c(-c3ccc(C(F)(F)F)c(SCCN4CCCCC4)c3)nn2CC(O)CN2CCCC2)C1` (racemic), the IC50 amounted to 335 nM against Cathepsin S [1] and 401 nM at Cathepsin S [2].
For the compound `CS(=O)(=O)N1CCc2c(c(-c3ccc(C(F)(F)F)c(SCCN4CCCCC4)c3)nn2CC(O)CN2CCOCC2)C1` (racemic), the concentration for half-maximal inhibition (IC50) against Cathepsin S [1] was determined as 325 nM; on Cathepsin S [2] it was 889 nM.
Consider `CS(=O)(=O)N1CCc2c(c(-c3ccc(C(F)(F)F)c(SCCN4CCCCC4)c3)nn2CC(O)CN2CCN(C3CC3)CC2)C1` (racemic), for which the IC50 at Cathepsin S [2] was 220 nM.
For `CS(=O)(=O)N1CCc2c(c(-c3ccc(C(F)(F)F)c(SCCN4CCCCC4)c3)nn2CC(O)CN2CCC(C3CCCC3)CC2)C1` (racemic), the results for the IC50 at Cathepsin S [1] and on Cathepsin S [2] were 218 nM and 81 nM, respectively.
For `CS(=O)(=O)N1CCc2c(c(-c3ccc(C(F)(F)F)c(SCCN4CCCCC4)c3)nn2CC(O)CN2CCC(c3ccccc3C#N)CC2)C1` (racemic), the IC50 came to 10 nM against Cathepsin S [1] and 160 nM on Cathepsin S [2]. Besides, in data set [3], the “inhibition (INH)” value is on record as “Active”.
`CS(=O)(=O)N1CCc2c(c(-c3ccc(C(F)(F)F)c(SCCN4CCCCC4)c3)nn2CC(O)CN2CCC(c3ccccn3)CC2)C1` (racemic): the half-maximal inhibitory concentration (IC50) on Cathepsin S [2] turned out to be 62 nM. For the same compound, the “inhibition (INH)” value in data set [3] is “Active”.
`CS(=O)(=O)N1CCc2c(c(-c3ccc(C(F)(F)F)c(SCCN4CCCCC4)c3)nn2CC(O)CN2CCC(N3CCCC3=O)CC2)C1` (racemic): the concentration for half-maximal inhibition (IC50) on Cathepsin S [2] turned out to be 152 nM.
Consider `CS(=O)(=O)N1CCc2c(c(-c3ccc(C(F)(F)F)c(SCCN4CCOCC4)c3)nn2CC(O)CN2CCCCC2)C1` (racemic), for which the IC50 was 420 nM on Cathepsin S [1] and 2520 nM on Cathepsin S [2].
Regarding `CS(=O)(=O)N1CCc2c(c(-c3ccc(C(F)(F)F)c(SCCN4CCCC4)c3)nn2CC(O)CN2CCCCC2)C1` (racemic), at Cathepsin S [2], the half-inhibitory concentration (IC50) came to 458 nM.
Regarding `CS(=O)(=O)N1CCc2c(c(-c3ccc(C(F)(F)F)c(SCCN4CCC(F)CC4)c3)nn2CC(O)CN2CCCCC2)C1` (racemic), the IC50 on Cathepsin S [2] worked out at 493 nM.
Regarding `CS(=O)(=O)N1CCc2c(c(-c3ccc(C(F)(F)F)c(SCCN)c3)nn2CC(O)CN2CCCCC2)C1` (racemic), the IC50 at Cathepsin S [1] was determined as 1130 nM.
For `CCCNCC(O)Cn1nc(-c2ccc(C(F)(F)F)c(SCCN3CCCCC3)c2)c2c1CCN(S(C)(=O)=O)C2` (racemic), the 50% inhibitory concentration (IC50) at Cathepsin S [1] turned out to be 595 nM.
